Laboratory results from PubChem BioAssay (NCI).
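Briefly, cells in 96-well plates were exposed to five compound concentrations for 48 h, and endpoints were estimated by linear interpolation. TGI: concentration producing complete growth inhibition.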

Legend:
Experiment in all cases: growth of human tumour cells (NCI), 48 h
UACC-62 melanoma = system: UACC-62 melanoma
TK-10 renal = system: TK-10 renal
A498 renal = system: A498 renal
SF-539 CNS = system: SF-539 CNS
UO-31 renal = system: UO-31 renal
HOP-92 NSCLC = system: HOP-92 NSCLC
CAKI-1 renal = system: CAKI-1 renal
SR leukemia = system: SR leukemia
SK-OV-3 ovarian = system: SK-OV-3 ovarian
HCC-2998 colon = system: HCC-2998 colon
DU-145 prostate = system: DU-145 prostate
OVCAR-5 ovarian = system: OVCAR-5 ovarian
SK-MEL-5 melanoma = system: SK-MEL-5 melanoma
HS 578T breast = system: HS 578T breast
IGROV1 ovarian = system: IGROV1 ovarian
PC-3 prostate = system: PC-3 prostate
MDA-MB-435 = system: MDA-MB-435
UACC-257 melanoma = system: UACC-257 melanoma
OVCAR-3 ovarian = system: OVCAR-3 ovarian
COLO 205 colon = system: COLO 205 colon
SNB-19 CNS = system: SNB-19 CNS
MDA-N = system: MDA-N
NCI/ADR-RES ovarian = system: NCI/ADR-RES ovarian
SF-295 CNS = system: SF-295 CNS
SF-268 CNS = system: SF-268 CNS
U251 CNS = system: U251 CNS
ACHN renal = system: ACHN renal
M14 melanoma = system: M14 melanoma
HOP-62 NSCLC = system: HOP-62 NSCLC
LOX IMVI melanoma = system: LOX IMVI melanoma
HT29 colon = system: HT29 colon
NCI-H460 lung = system: NCI-H460 lung
OVCAR-8 ovarian = system: OVCAR-8 ovarian
HCT-116 colon = system: HCT-116 colon
KM12 colon = system: KM12 colon
MCF7 breast = system: MCF7 breast
OVCAR-4 ovarian = system: OVCAR-4 ovarian
MALME-3M melanoma = system: MALME-3M melanoma
NCI-H522 lung = system: NCI-H522 lung
786-0 renal = system: 786-0 renal
RXF 393 renal = system: RXF 393 renal
HCT-15 colon = system: HCT-15 colon
SK-MEL-2 melanoma = system: SK-MEL-2 melanoma
NCI-H23 lung = system: NCI-H23 lung
SNB-75 CNS = system: SNB-75 CNS
A549 NSCLC = system: A549 NSCLC
K-562 leukemia = system: K-562 leukemia
SW-620 colon = system: SW-620 colon
T-47D breast = system: T-47D breast
SN12C renal = system: SN12C renal
SK-MEL-28 melanoma = system: SK-MEL-28 melanoma
EKVX NSCLC = system: EKVX NSCLC

N#CCCC1(CCC#N)CCCCCCC(CCC#N)(CCC#N)C(=O)C1=O
TGI (UACC-62 melanoma): > 100 µM | TGI (TK-10 renal): > 100 µM | TGI (A498 renal): > 100 µM | TGI (SF-539 CNS): > 100 µM | TGI (UO-31 renal): 20.8 µM | TGI (HOP-92 NSCLC): > 100 µM | TGI (CAKI-1 renal): > 100 µM | TGI (SR leukemia): > 100 µM | TGI (SK-OV-3 ovarian): > 100 µM | TGI (HCC-2998 colon): > 100 µM | TGI (DU-145 prostate): > 100 µM | TGI (OVCAR-5 ovarian): > 100 µM | TGI (SK-MEL-5 melanoma): > 100 µM | TGI (HS 578T breast): > 100 µM | TGI (IGROV1 ovarian): > 100 µM | TGI (PC-3 prostate): > 100 µM | TGI (MDA-MB-435): > 100 µM | TGI (UACC-257 melanoma): > 100 µM | TGI (OVCAR-3 ovarian): > 100 µM | TGI (COLO 205 colon): > 100 µM | TGI (SNB-19 CNS): > 100 µM | TGI (MDA-N): > 100 µM | TGI (NCI/ADR-RES ovarian): > 100 µM | TGI (SF-295 CNS): > 100 µM | TGI (SF-268 CNS): > 100 µM | TGI (U251 CNS): > 100 µM | TGI (ACHN renal): > 100 µM | TGI (M14 melanoma): > 100 µM | TGI (HOP-62 NSCLC): > 100 µM | TGI (LOX IMVI melanoma): > 100 µM | TGI (HT29 colon): > 100 µM | TGI (NCI-H460 lung): > 100 µM | TGI (OVCAR-8 ovarian): > 100 µM | TGI (HCT-116 colon): > 100 µM | TGI (KM12 colon): > 100 µM | TGI (MCF7 breast): > 100 µM | TGI (OVCAR-4 ovarian): > 100 µM | TGI (MALME-3M melanoma): > 100 µM | TGI (NCI-H522 lung): > 100 µM | TGI (786-0 renal): > 100 µM | TGI (RXF 393 renal): > 100 µM | TGI (HCT-15 colon): > 100 µM | TGI (SK-MEL-2 melanoma): > 100 µM | TGI (NCI-H23 lung): > 100 µM | TGI (SNB-75 CNS): > 100 µM | TGI (A549 NSCLC): > 100 µM | TGI (K-562 leukemia): > 100 µM | TGI (SW-620 colon): > 100 µM | TGI (T-47D breast): > 100 µM | TGI (SN12C renal): > 100 µM | TGI (SK-MEL-28 melanoma): > 100 µM | TGI (EKVX NSCLC): > 100 µM
